Tests used:
[1] = molecular target: T1, rh beta tryptase (Homo sapiens, UniProt Q15661); test: tryptase inhibition test (cleavage of N-p-tosyl-Gly-Pro-Lys-para-nitroaniline, p-nitroaniline measured at 405 nm); assay type: biochemical; settings: Tris HCl buffer pH 7.4 with calcium and heparin, 37° C., substrate 0.6 mM, 5 minutes pre-incubation, 5 minutes incubation
T1 construct: purchased Promega
Procedure: The compounds according to the invention are characterised by their tryptase-inhibiting activity. This ability to inhibit tryptase was investigated using the test described below.
The measurement is carried out in Tris HCl buffer (100 mM), which additionally contains calcium (5 mM) and heparin ([…]), at pH 7.4. The standard used is rh beta tryptase which may be obtained commercially from Promega, for example. The substrate used is N-p-tosyl-Gly-Pro-Lys-para-nitroaniline in a concentration of 0.6 mM. The substrate is digested with tryptase to form p-nitroaniline which can be measured at 405 nm. Usually, an incubation period of 5 minutes and an incubation temperature of 37° C. are chosen. The enzyme activity used is 0.91 U/ml. The measurements are carried out in an Autoanalyser (Cobas Bio) made by Hofmann LaRoche. The potential inhibitory substances are used in concentrations of 10 μM in the screening, the inhibition of the tryptase being given in percent. The IC50 is determined at over 70% inhibition (concentration at which 50% of the enzyme activity is inhibited). After 5 minutes pre-incubation of the potential inhibitory substances, the substrate is added to start the reaction, the formation of p-nitroaniline being taken as a measurement of the enzyme activity after 5 minutes, after testing the linearity.
The data obtained after carrying out the tests described above (IC50 values) can be found in Table 2.

T1 sequence (Q15661 31-275): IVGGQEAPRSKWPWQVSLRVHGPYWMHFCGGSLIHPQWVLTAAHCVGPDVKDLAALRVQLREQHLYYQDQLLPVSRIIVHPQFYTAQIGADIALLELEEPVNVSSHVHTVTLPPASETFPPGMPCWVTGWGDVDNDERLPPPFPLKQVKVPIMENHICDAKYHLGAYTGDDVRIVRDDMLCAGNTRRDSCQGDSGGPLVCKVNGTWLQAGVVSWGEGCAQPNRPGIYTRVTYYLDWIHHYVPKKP

| melting point | IC50 [1] | Structure (SMILES) |
| --- | --- | --- |
| 88 to 90 °C | 0.049 µM | CCN(CC)CCN(c1ccc2c(c1)nc(CCc1ccc(C(=N)N)cc1)n2C)S(=O)(=O)c1ccc(Cl)cc1 [Example 10, N-{2-[2-(4-amidinophenyl)-ethyl]-1-methyl-benzimidazol-5-yl}-N-diethylaminoethyl-(4-chloro-benzenesulphonamide)] |
| 156 °C |  | CCN(CC)CCN(c1ccc2c(c1)nc(CCc1ccc(C(N)=NO)cc1)n2C)S(=O)(=O)c1cccc(Br)c1 [Example 36, N-{2-[2-(4-amino-hydroximinomethyl)phenyl-ethyl]-1-methyl-benzimidazol-5-yl}-N-diethylaminoethyl-(3-bromo-benzenesulphonamide)] |

From patent publication US6413990B1, “Arylsulphonamide-substituted benzimidazoles having tryptase-inhibiting activity” (Boehringer Ingelheim Pharma KG, priority 1999, dated 2002)
